Earlier results on 1 compound are cited in patent US20220370398A1, “METHOD TO DESTABALIZE CYSTEINE EXPOSED INFECTIOUS INFORMATION VECTORS” (priority 2021, published 2022).

For series [1] the following is noted: in 40% aqueous ethanol solution.
Another series deals with bacterial infection. The settings on record: in vitro, as a vapor.

Consider `C=CCS[S+]([O-])CC=C` (centres unmarked) [2PSP, 2-Propene-1-sulfinothioic acid S-2-propenyl ester], for which the solubility in series [1] is roughly 20%. Also, the vapor antimicrobial effect entry in the series with bacterial infection is on record as “inhibits bacterial infection”.
